This note sets out measurements from patent publication US20260325465A1, “SHP-1 INHIBITORS FOR TREATING CANCER” (MDX MANAGEMENT LLC, priority 2022, published 2026).

In data set [1] the test system is KPC pancreatic cancer. Kind of data set: Study-3: iSHP-1 with RT and αPD-L1, KPC pancreatic cancer. The class given is in vivo, mice. To be noted: TPI-1 3 or 5 mg/kg i.p. every 3 days, right flank RT 8Gy-4Gy-2Gy, αPD-L1 100 μg. The procedure:
(§1) FIGS. 13A-13E depict pulse-intermittent SHP-1 inhibition (iSHP-1) combination with RT and αPD-L1 treating pancreatic cancer and lung cancer. FIG. 13A depicts experimental schemes. […] Concomitantly, the tumor at the right flank was treated with 8Gy X-ray radiation (RT). After two days of intermittent period, mice on day 4 were treated with the 2nd cycle TPI-1 (i.p.) of the same dose while RT reduced to 4Gy applied to the right flank tumor. The 3rd cycle (day 7) iSHP-1 combination with RT reduced to 2Gy. Anti-PD-L1 Ab (100 μg, i.p.) was given a day following TPI-1 plus RT. FIG. 13B depicts luminescent image tracing KPC-luc and LLC-luc tumor changes post treatment. FIG. 13C depicts record of tumor volume changes and animal survival up to post-treatment 45 days.
(§2) Modalities & Dosing Strategy: i) iSHP-1—TPI-1, 3 or 5 mg/kg, i.p., 1× every 3 days. ii) Tumor focal RT: 8Gy-4Gy-2Gy, given to right flank simultaneously with iSHP-1. iii) αPD-L1: 100 μg, i.p., given a day after iSHP-1 plus RT

Data set [2] in a line: Study-2: acute adverse toxicity. It is filed as in vivo, mice. To be noted: intermittent iSHP-1 therapies. As for the experimental part: FIGS. 12A-12D depict that pulse-intermittent inhibition of SHP-1 (iSHP-1) combined with TLR agonists (αTLR) and/or anti-PD-L1 checkpoint inhibitor effectively treat multi-lesion MC38 colorectal carcinoma. FIG. 12A depicts the treatment scheme. Mice with bilateral MC38 tumors (s.c.) were treated for two days with TPI-1 and various combinations via i.p. or s.c. A 5-day intermittent period was given before the 2nd cycle of treatments to mice that had residue tumors. FIGS. 12B and 12C depict tumor control efficacies measured by tumor volume changes (FIG. 12B) and TME reprogramming, indicating increases in tumor killing immune populations while reduction of immunosuppression. FIG. 12D depicts acute adverse toxicity, measured by body weight, proteinuria, serum ALT level and splenomegaly.

Data set [3] deals with LLC lung cancer. Kind of data set: Study-3: iSHP-1 with RT and αPD-L1, LLC lung cancer. To be noted: TPI-1 3 or 5 mg/kg i.p. every 3 days, right flank RT 8Gy-4Gy-2Gy, αPD-L1 100 μg. The class given is in vivo, mice. The procedure:
as §1, §2

Data set [4] is described as follows: Study-4: adverse effects. It is filed as in vivo, mice. As to conditions: TPI-1 with TLR agonists (each 50 μg), i.p. As for the experimental part: FIGS. 14A-14E depict that pulse-intermittent inhibition of SHP-1 (iSHP-1) combined with TLR agonists (αTLR) treating late-stage KPC pancreatic ductal adenocarcinoma. FIG. 14A depicts the treatment scheme. Mice with large KPC tumors were treated (i.p.) consecutively for three days with TPI-I plus TLR agonists (CpG, PolyIC and R848, each 50 μg). After the initial pulse treatment, an intermittent period of 9-day was given before the 2nd cycle of treatment of two days with TPI plus TLR agonists. FIG. 14B depicts the luminescent images of mice with KPC tumor during the course of treatment. FIG. 14C depicts tumor volume changes.

In data set [5] the test system is KPC pancreatic ductal adenocarcinoma. Kind of data set: TME analysis of KPC pancreatic ductal adenocarcinoma with tumor-focal RT. The class given is in vivo, murine. As to conditions: TPI-1 combined RT. From the text: FIGS. 9A-9C depict that the inhibition of SHP-1 by TPI-1 combined with tumor-focal RT reprogram TME of KPC pancreatic ductal adenocarcinoma towards proinflammatory cancer elimination. FIG. 9A depicts treatment scheme and TME analyses on day 5. The table depicts the percentages of various populations within total CD45+ cells. The bar graph depicts the percentages of various populations within total cells.

For data set [6], the system named is EL4, B16, MC38, Pan01, KPC and LLC cancer cells. Description: Phagocytosis by murine bone marrow-derived macrophages. The class given is cell-based. To be noted: 1 μg/ml. As for the experimental part: FIGS. 2A-2G depict that the inhibition of SHP-1 enhances macrophage proinflammatory response, antigen presentation and phagocytosis in a tumor milieu. FIG. 2A and FIG. 2B depict that SHP-1 activity in macrophages is triggered by proinflammatory stimulation and the extracellular cancer cell ligation (“touching”) of macrophages (green bar in FIG. 2A). […] The SHP-2 inhibitor SHP099 (1 μg/ml) was used in assays. FIG. 2C depicts the inhibition of SHP-1 by TPI-1 dose-dependently recovers IFNγ/LPS-induced activation of STAT1 (p-STAT1) and Erk1/2 (p-Erk1/2) de-activated by SHP-1 (red line). FIG. 2D and FIG. 2E depict that the inhibition of SHP-1 in macrophages by TPI-1 enhances production of proinflammatory cytokines (FIG. 2D) and expression of immunogenic antigen presentation machinery (FIG. 2E) by IFNγ/LPS in a tumor milieu. […] The SHP-1 and SHP-2 inhibitors TPI-1 and SHP099, respectively, was used at 1 μg/ml in assays.

Structures are written as SMILES.

`O=C1C=CC(=O)C(c2cc(Cl)ccc2Cl)=C1` [TPI-1]: the “tumor elimination incl. distal lesions” value in data set [1] was “effectively eliminating or repressing KPC pancreatic cancer and LLC lung cancer along with distal lesions”; in data set [3] it was “effectively eliminating or repressing KPC pancreatic cancer and LLC lung cancer along with distal lesions”. The acute adverse toxicity result in data set [2] is “did not incur acute adverse toxicity”. Further, in data set [4], the “adverse effects and body weight” value is “minor adverse effects and transient body weight loss followed by recovery”. Further, the “CD8 T cell expansion and p15E reactivity” value in data set [5] was “marked expansion of CD8 T cells with significant high frequency of reactivity to tumor-specific antigen p15E”. For the same compound, the intratumoral macrophage phenotype entry in data set [5] was “proinflammatory phenotype and increased antigen presentation capacity”. In data set [5] (day 5), the “immune cell infiltration in TME” value is “induced neutrophil (PMN) infiltration, NK cell increases and CD8 T cell expansion”. In addition, in data set [6], the “phagocytosis of cancer cells” value is “promotes proinflammatory-activated macrophages for phagocytosis of cancer cells”.
